{"source": "patent US8697629B2", "about": "“Modulation of intracellular signaling” (Angstrom Pharmaceuticals, Inc., priority 2010, dated 2014)", "key": {"[1]": {"tested_on": "A2780 cells", "experiment": "Boyden chamber chemotaxis of A2780 cells", "format": "cell-based", "details": "10 ng/ml VEGF in NIH3T3-conditioned media, overnight", "procedure": "A2780 (FIG. 10a) and SKOV3 (FIG. 10b) cells were incubated with the indicated concentrations of Å6 peptide for 30 min at 37° C. Aliquots representing 6,000 cells were placed on quadruplicate, CnI-coated filters (8 μm pores) in Boyden chambers and the cells allowed to migrate overnight in response to 10 ng/ml VEGF in NIH3T3-conditioned media containing the indicated concentrations of Å6. Upon completion of migration, the apical surfaces of the membranes were wiped clean and the migrating cells on the basal surface were stained with Geimsa stain and the cells present in representative fields of the membranes counted. Data represent the averages+/−standard deviations obtained from the replicate filters. […] This provides further confirmation that CD44 is the target for the Å6 peptide."}, "[2]": {"tested_on": "B16 melanoma cells", "experiment": "B16 melanoma lung metastasis model", "format": "in vivo, C57BL/6J mice", "details": "melanoma cells injected in the tail vein", "procedure": "The B16 melanoma metastasis is well known in the art. A typical protocol for assessing the inhibitory effect of a compound on metastasis is described below. Such a protocol was followed to assess the effect of Å6 on metastasis.\nBriefly, B16 melanoma cells can be cultured in RPMI-1640 with 10% fetal bovine serum at 37° C. in an atmosphere of 95% air and 5% CO2. C57BL/6J mice of six to eight weeks can be purchased from commercial suppliers. For the lung metastasis model, about 1×10^5 melanoma cells suspended in 100 μl saline were injected in the tail vein in the presence or absence of Å6. Administration of the Å6 peptide inhibited the lung metastasis by 50% or more."}, "[3]": {"tested_on": "FAK", "experiment": "FAK phosphorylation in SKOV3 cells, immunoblot and densitometry", "format": "cell-based", "procedure": "(§1) Cells were detached from their culture vessels by brief trypsinization, suspended in complete media and centrifuged at 250×g for 10 min at room temperature. The cell pellets were suspended in Dulbeco's phosphate buffered saline (DPBS) and re-centrifuged for a total of three washes. The cells were then re-suspended at 3.33E5/ml in 24 ml of either RPMI containing 0.5% BSA (Sigma Chem. Co. #A0336) (RPMI/BSA) or the conditioned media of growing NIH3T3 fibroblasts (10% FBS in DMEM) supplemented with 10 ng/ml vascular endothelial growth factor (VEGF) (CMN). The cells were then treated with or without 100 ug/ml soluble hyaluronic acid (HA; human umbilical, Calbiochem #385902) for 30 min at 37° C. under 5% CO2. Aliquots representing 2E6 cells were then plated into 10 cm culture dishes and A6 added to yield final concentrations of 0, 10, 100 and 1000 nM. The cells were cultured overnight (18 hr) at 37° C. under 5% CO2.\n(§2) After 18 hr of treatment, the media were aspirated from the 10 cm dishes and saved. The plates were washed 3 times with 4 ml of ice-cold DPBS which were pooled with the reserved non-adherent cells. The non-adherent cells were centrifuged at 250×g for 10 min at 4° C., washed twice with cold DPBS, drained and lysed in 50 ul of cold RIPA buffer (ThermoScientific #89901) containing cocktails of broad spectrum phosphatase inhibitors (Calbiochem #524625; used at 2× final concentration) and protease inhibitors (Sigma #P8340) (RIPA/inh.). The 10 cm dishes were drained of remaining wash and the adherent cells lysed by scraping in 200 μL of cold RIPA/inh. For each test condition, the lysates of the non-adherent and adherent populations were combined, vortexed and then centrifuged at 14,000 rpm at 4° C. for 20 min. Aliquots of the cleared lysates were frozen at −80° C. immediately. A small aliquot was reserved for total protein analysis using a BCA Protein Assay Kit (Calbiochem #71285-3).\nSamples representing 20 μg of total protein of each lysate were solubilized in the presence of 50 mM Tris pH 6.8, 10% glycerol, 2% SDS and 100 mM DTT for 5 min at 95° C. and then loaded onto 10-20% acrylamide gels (BioRad #345-0044, Tris-HCl, 1 mm, 26 well, 15 μL/well). Electrophoresis was performed using Laemli electrophoresis buffer (0.1% SDS, 25 mM Tris, 192 mM glycine) at 200 V, constant voltage, for one hour. Upon completion of electrophoresis, the proteins were transferred to Immun-Blot PVDF membranes (BioRad #162-0238) in ice-cold 20% methanol in 25 mM Tris, 192 mM glycine for 2 hr at 0.5 Amps, constant current/blotting apparatus. […]\nThe integrated densities (id) of the bands of interest were measured using Image J software (NIH). […]"}, "[4]": {"tested_on": "ERK 1/2", "experiment": "ERK 1/2 phosphorylation (T202/Y204) in SKOV3 cells, immunoblot", "format": "cell-based", "procedure": "as §1, §2\n(§3) Samples representing 20 μg of total protein of each lysate were solubilized in the presence of 50 mM Tris pH 6.8, 10% glycerol, 2% SDS and 100 mM DTT for 5 min at 95° C. and then loaded onto 10-20% acrylamide gels (BioRad #345-0044, Tris-HCl, 1 mm, 26 well, 15 μL/well). Electrophoresis was performed using Laemli electrophoresis buffer (0.1% SDS, 25 mM Tris, 192 mM glycine) at 200 V, constant voltage, for one hour. Upon completion of electrophoresis, the proteins were transferred to Immun-Blot PVDF membranes (BioRad #162-0238) in ice-cold 20% methanol in 25 mM Tris, 192 mM glycine for 2 hr at 0.5 Amps, constant current/blotting apparatus. The membranes were then cut vertically between molecular weight markers and in half at the 64 kDa marker to generate pieces for screening of higher molecular weight proteins (e.g., FAK) and lower molecular weight proteins (e.g., MEK and GAPDH). The blots were then blocked for a minimum of 4 hrs at room temperature in 3% bovine serum albumin (Sigma A0336) in 50 mM Tris, pH 7.4, 145 mM NaCl, 0.05% Tween-20 (TTBS) containing 0.05% sodium azide.\nUpon completion of the primary antibody incubation, the blots were washed three times for 10 min in TTBS and then incubated with 1/25,000 dilutions of peroxidase-conjugated donkey anti-mouse IgG (Jackson ImmunoResearch #715-035-150) or peroxidase-conjugated donkey anti-rabbit IgG (Jackson ImmunoResearch #711-035-152) in TTBS containing 3% BSA for one hour at room temperature. […]"}, "[5]": {"tested_on": "PKCalpha", "experiment": "PKCalpha phosphorylation in SKOV3 cells, immunoblot", "format": "cell-based", "procedure": "as §1, §2\nas §3, with “The blots were then blocked for a minimum of 4 hrs at room temperature in 3% bovine serum albumin (Sigma A0336) in 50 mM Tris, pH 7.4, 145 mM NaCl, 0.05% Tween-20 (TTBS) containing 0.05% sodium azide.” left out"}}}
{"substance": "acetyl-Lys-Pro-Ser-Ser-Pro-Pro-Glu-Glu-NH2 (Ac-KPSSPPEE-NH2) [Å6]", "values": [{"measurement": "migration of A2780", "setting": "[1]", "value": "essentially unaffected"}, {"measurement": "inhibition of lung metastasis", "setting": "[2]", "value": "≥ 50", "unit": "%"}, {"measurement": "FAK phosphorylation", "setting": "[3]; CM/V media", "value": "enhanced"}, {"measurement": "FAK phosphorylation in the presence of HA", "setting": "[3]; RPMI/BSA", "value": "restored"}, {"measurement": "pFAK/FAK ratios", "setting": "[3]; SKOV3, all conditions, Y397, Y576/577, Y925", "value": "enhanced pFAK/FAK ratios in a dose-dependent manner"}, {"measurement": "pERK/Erk", "setting": "[4]; CM/V", "value": "appears to have increased"}, {"measurement": "pERK/Erk", "setting": "[4]; CM/V with HA present", "value": "decreased"}, {"measurement": "pERK/Erk", "setting": "[4]; basal media (RPMI/BSA)", "value": "increased pERK/Erk in a dose dependent manner"}, {"measurement": "pErk/Erk response to HA", "setting": "[4]; basal media with HA", "value": "decreased this response to HA"}, {"measurement": "total PKCalpha", "setting": "[5]; CM/V cultured samples", "value": "decreased"}, {"measurement": "pPKCa/PKCa", "setting": "[5]; CM/V in the absence of HA", "value": "decreased"}, {"measurement": "pPKCa/PKCa", "setting": "[5]; in the presence of HA", "value": "appears to have further enhanced"}]}
